Laboratory results from the kinase profiling compilation of Christmann-Franck et al. (2016).

How the values were obtained:
Experiment in all cases: KINOMEscan competition binding
Details in all cases: compound 10.0 µM
MAP2K1 (human) = MAP2K1 (human) (UniProt Q02750)
SYK (human) = SYK (human) (UniProt P43405)
PAK2 (human) = PAK2 (human) (UniProt Q13177)
HUNK (human) = HUNK (human) (UniProt P57058)
PAK6 (human) = PAK6 (human) (UniProt Q9NQU5)
TLK1 (human) = TLK1 (human) (UniProt Q9UKI8)
STK17B (human) = STK17B (human) (UniProt O94768)
CDK7 (human) = CDK7 (human) (UniProt P50613)
ACVR2B (human) = ACVR2B (human) (UniProt Q13705)
ERBB2 (human) = ERBB2 (human) (UniProt P04626)
HIPK3 (human) = HIPK3 (human) (UniProt Q9H422)
TESK1 (human) = TESK1 (human) (UniProt Q15569)
DCLK3 (human) = DCLK3 (human) (UniProt Q9C098)
STK35 (human) = STK35 (human) (UniProt Q8TDR2)
ABL2 (human) = ABL2 (human) (UniProt P42684)
RPS6KA1 KD1 (human) = RPS6KA1 KD1 (human) (UniProt Q15418)
EPHA8 (human) = EPHA8 (human) (UniProt P29322)
[1] = test system: RET (human), P07949 [V804M]
AXL (human) = AXL (human) (UniProt P30530)
PI4KB (human) = PI4KB (human) (UniProt Q9UBF8)
GAK (human) = GAK (human) (UniProt O14976)
TEK (human) = TEK (human) (UniProt Q02763)
CaMK1 (human) = CaMK1 (human) (UniProt Q14012)
INSRR (human) = INSRR (human) (UniProt P14616)
MAP2K6 (human) = MAP2K6 (human) (UniProt P52564)
CDKL3 (human) = CDKL3 (human) (UniProt Q8IVW4)
EPHB1 (human) = EPHB1 (human) (UniProt P54762)
SBK1 (human) = SBK1 (human) (UniProt Q52WX2)
MAP3K3 (human) = MAP3K3 (human) (UniProt Q99759)
BTK (human) = BTK (human) (UniProt Q06187)
CDK14 (human) = CDK14 (human) (UniProt O94921)
NEK6 (human) = NEK6 (human) (UniProt Q9HC98)
PRKD1 (human) = PRKD1 (human) (UniProt Q15139)
ERBB4 (human) = ERBB4 (human) (UniProt Q15303)
GSK3B (human) = GSK3B (human) (UniProt P49841)
CLK3 (human) = CLK3 (human) (UniProt P49761)
DYRK2 (human) = DYRK2 (human) (UniProt Q92630)
IGF1R (human) = IGF1R (human) (UniProt P08069)
NTRK3 (human) = NTRK3 (human) (UniProt Q16288)
Sequence of NTRK3 (human) (Q16288 whole entry, looked up): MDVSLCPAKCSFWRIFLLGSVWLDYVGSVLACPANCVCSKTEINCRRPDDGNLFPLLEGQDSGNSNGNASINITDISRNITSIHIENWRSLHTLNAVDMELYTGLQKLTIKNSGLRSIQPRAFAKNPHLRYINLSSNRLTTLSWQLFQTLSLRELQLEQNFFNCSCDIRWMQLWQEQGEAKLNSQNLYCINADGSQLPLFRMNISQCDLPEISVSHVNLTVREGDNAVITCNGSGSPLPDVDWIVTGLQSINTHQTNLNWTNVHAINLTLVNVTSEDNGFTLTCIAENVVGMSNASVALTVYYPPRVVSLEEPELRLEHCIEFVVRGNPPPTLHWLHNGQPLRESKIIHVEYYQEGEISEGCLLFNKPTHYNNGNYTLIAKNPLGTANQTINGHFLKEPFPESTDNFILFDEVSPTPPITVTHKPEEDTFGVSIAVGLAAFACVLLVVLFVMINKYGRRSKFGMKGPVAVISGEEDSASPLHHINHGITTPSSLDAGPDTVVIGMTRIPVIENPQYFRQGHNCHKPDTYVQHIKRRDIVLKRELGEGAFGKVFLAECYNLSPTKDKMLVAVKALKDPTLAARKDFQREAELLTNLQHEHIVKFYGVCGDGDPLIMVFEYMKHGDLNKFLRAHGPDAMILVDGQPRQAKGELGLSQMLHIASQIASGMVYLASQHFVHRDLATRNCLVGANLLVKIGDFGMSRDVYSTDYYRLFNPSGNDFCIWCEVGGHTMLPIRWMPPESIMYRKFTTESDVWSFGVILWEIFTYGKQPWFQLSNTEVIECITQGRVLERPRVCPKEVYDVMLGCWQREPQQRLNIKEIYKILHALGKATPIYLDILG

Sequence of NEK6 (human) (Q9HC98 whole entry, looked up): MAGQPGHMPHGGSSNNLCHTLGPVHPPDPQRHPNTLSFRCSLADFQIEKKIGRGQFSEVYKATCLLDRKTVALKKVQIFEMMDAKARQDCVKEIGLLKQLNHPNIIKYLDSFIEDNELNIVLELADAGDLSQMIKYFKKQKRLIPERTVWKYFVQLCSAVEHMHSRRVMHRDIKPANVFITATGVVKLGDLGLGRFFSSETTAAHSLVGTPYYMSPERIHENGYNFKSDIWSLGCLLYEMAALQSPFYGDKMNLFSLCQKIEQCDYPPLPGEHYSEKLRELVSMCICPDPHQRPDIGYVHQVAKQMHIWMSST
Sequence of HUNK (human) (P57058 whole entry, looked up): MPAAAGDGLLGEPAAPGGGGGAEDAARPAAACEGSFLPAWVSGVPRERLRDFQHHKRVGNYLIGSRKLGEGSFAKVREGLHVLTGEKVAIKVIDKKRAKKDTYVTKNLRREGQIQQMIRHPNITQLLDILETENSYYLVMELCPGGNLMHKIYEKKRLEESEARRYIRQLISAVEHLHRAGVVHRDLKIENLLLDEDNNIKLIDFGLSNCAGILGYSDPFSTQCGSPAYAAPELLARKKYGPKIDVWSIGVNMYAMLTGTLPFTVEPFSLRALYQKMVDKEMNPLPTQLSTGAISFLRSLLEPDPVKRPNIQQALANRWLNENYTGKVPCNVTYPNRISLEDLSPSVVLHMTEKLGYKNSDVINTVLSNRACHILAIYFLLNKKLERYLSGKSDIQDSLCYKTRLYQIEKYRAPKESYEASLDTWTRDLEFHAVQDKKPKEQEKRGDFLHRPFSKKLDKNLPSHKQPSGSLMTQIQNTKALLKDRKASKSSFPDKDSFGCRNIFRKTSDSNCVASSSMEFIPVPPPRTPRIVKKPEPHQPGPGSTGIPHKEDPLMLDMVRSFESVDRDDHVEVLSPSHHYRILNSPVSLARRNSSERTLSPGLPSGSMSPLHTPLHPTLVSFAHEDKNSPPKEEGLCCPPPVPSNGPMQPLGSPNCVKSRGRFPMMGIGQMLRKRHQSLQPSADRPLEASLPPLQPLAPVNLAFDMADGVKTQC
Sequence of PRKD1 (human) (Q15139 whole entry, looked up): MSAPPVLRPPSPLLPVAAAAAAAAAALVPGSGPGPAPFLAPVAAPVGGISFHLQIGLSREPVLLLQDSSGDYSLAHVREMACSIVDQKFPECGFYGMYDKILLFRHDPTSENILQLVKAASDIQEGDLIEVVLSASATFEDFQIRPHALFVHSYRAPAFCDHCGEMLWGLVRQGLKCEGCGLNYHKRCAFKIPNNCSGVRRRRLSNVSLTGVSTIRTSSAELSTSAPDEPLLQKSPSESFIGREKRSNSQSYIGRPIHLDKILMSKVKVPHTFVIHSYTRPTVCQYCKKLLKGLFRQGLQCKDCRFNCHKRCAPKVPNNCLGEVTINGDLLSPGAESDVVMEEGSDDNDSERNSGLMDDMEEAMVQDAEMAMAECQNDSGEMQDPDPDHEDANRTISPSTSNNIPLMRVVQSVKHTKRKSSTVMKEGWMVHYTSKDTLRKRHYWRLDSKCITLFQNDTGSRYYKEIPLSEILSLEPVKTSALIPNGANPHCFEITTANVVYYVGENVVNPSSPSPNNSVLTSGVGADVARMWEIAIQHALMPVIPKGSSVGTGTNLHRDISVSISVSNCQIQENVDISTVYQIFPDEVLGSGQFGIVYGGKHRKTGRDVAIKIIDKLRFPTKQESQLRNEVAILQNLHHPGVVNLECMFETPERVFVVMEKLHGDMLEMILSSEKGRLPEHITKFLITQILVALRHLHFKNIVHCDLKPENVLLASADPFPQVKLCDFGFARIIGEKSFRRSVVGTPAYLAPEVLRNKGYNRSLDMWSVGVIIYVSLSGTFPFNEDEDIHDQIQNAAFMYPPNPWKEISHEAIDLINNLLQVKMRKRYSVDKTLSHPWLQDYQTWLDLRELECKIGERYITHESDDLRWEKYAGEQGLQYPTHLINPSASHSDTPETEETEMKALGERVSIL
Sequence of DCLK3 (human) (Q9C098 whole entry, looked up): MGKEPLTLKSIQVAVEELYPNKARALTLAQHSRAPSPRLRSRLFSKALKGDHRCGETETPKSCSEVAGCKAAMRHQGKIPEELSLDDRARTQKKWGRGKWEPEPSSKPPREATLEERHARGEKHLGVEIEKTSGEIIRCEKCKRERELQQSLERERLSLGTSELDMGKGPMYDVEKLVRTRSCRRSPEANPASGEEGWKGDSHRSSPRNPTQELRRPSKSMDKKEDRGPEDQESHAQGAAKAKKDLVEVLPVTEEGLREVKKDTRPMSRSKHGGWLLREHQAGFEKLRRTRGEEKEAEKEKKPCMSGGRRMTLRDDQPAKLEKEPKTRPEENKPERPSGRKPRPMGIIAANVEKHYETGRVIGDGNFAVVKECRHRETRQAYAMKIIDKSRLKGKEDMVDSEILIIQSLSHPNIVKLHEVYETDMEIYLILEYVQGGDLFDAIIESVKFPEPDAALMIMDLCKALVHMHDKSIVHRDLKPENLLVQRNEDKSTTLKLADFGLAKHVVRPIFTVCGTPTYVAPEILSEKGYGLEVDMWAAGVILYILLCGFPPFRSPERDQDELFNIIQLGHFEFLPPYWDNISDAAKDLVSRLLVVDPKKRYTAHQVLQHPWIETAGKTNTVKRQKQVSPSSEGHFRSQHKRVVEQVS
Sequence of AXL (human) (P30530 whole entry, looked up): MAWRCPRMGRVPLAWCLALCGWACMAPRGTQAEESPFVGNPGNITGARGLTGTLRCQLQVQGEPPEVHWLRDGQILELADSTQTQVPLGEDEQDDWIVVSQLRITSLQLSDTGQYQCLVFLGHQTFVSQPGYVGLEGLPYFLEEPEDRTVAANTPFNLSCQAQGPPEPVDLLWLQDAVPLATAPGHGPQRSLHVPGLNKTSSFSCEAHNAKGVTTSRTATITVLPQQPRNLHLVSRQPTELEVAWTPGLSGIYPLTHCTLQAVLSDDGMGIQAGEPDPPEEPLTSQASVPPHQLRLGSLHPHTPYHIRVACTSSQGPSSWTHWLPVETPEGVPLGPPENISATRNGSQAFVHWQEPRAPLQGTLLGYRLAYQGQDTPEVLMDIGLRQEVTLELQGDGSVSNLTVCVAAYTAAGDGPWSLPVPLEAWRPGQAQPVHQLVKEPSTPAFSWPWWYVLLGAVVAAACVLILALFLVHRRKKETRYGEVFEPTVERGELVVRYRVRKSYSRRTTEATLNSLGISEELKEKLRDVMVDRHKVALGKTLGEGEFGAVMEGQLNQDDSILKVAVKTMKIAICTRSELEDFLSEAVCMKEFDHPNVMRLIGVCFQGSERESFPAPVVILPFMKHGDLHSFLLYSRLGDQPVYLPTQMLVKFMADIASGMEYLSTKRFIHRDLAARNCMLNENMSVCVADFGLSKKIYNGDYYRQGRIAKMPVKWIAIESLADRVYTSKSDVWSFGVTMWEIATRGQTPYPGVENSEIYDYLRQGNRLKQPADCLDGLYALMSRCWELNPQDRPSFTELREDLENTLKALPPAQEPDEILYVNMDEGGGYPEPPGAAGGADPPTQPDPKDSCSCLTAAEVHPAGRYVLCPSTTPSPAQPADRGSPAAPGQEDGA
Sequence of RPS6KA1 KD1 (human) (Q15418 whole entry, looked up): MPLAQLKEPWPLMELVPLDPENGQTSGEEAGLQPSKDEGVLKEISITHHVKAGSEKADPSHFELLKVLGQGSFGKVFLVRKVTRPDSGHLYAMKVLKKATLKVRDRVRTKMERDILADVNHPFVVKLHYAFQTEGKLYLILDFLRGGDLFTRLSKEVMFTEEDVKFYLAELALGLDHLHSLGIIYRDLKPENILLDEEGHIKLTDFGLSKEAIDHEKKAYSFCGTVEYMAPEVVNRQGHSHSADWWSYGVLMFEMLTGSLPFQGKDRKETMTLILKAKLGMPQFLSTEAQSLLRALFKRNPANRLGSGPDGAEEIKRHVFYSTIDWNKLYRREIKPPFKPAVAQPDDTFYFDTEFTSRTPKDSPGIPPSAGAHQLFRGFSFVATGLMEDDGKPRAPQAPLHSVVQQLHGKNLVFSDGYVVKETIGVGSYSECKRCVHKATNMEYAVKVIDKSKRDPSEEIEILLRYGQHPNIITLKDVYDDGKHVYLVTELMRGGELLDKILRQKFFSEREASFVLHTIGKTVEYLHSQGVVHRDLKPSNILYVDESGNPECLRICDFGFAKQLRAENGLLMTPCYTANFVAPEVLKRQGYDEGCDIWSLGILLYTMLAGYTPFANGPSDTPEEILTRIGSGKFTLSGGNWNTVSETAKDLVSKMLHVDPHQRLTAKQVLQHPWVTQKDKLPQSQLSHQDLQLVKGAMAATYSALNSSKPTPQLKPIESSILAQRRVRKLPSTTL

SMILES | kinase still bound, per cent of control (MAP2K1 (human)) | kinase still bound, per cent of control (SYK (human)) | kinase still bound, per cent of control (PAK2 (human)) | kinase still bound, per cent of control (HUNK (human)) | kinase still bound, per cent of control (PAK6 (human)) | kinase still bound, per cent of control (TLK1 (human)) | kinase still bound, per cent of control (STK17B (human)) | kinase still bound, per cent of control (CDK7 (human)) | kinase still bound, per cent of control (ACVR2B (human)) | kinase still bound, per cent of control (ERBB2 (human)) | kinase still bound, per cent of control (HIPK3 (human)) | kinase still bound, per cent of control (TESK1 (human)) | kinase still bound, per cent of control (DCLK3 (human)) | kinase still bound, per cent of control (STK35 (human)) | kinase still bound, per cent of control (ABL2 (human)) | kinase still bound, per cent of control (RPS6KA1 KD1 (human)) | kinase still bound, per cent of control (EPHA8 (human)) | kinase still bound, per cent of control [1] | kinase still bound, per cent of control (AXL (human)) | kinase still bound, per cent of control (PI4KB (human)) | also measured
COc1cc(N2CCN(C)CC2)ccc1Nc1ncc2c(n1)N(C)c1ccccc1C(=O)N2C | 100% | 100% | 100% | 100% | 100% | 100% | 100% | 100% | 100% | 100% | 100% | 100% | 16% | 100% | 100% | 100% | 100% | 100% | 100% | 100% | kinase still bound, per cent of control (GAK (human)): 9.8%; kinase still bound, per cent of control (TEK (human)): 100%; kinase still bound, per cent of control (CaMK1 (human)): 100%; kinase still bound, per cent of control (INSRR (human)): 100%; kinase still bound, per cent of control (MAP2K6 (human)): 100%; kinase still bound, per cent of control (CDKL3 (human)): 100%; kinase still bound, per cent of control (EPHB1 (human)): 100%; kinase still bound, per cent of control (SBK1 (human)): 8.9%; kinase still bound, per cent of control (MAP3K3 (human)): 100%; kinase still bound, per cent of control (BTK (human)): 100%; kinase still bound, per cent of control (CDK14 (human)): 100%; kinase still bound, per cent of control (NEK6 (human)): 100%; kinase still bound, per cent of control (PRKD1 (human)): 3.8%; kinase still bound, per cent of control (ERBB4 (human)): 100%; kinase still bound, per cent of control (GSK3B (human)): 100%; kinase still bound, per cent of control (CLK3 (human)): 100%; kinase still bound, per cent of control (DYRK2 (human)): 100%; kinase still bound, per cent of control (IGF1R (human)): 100%; kinase still bound, per cent of control (NTRK3 (human)): 100%
CCN(CC)CCCCNc1ncc2c(n1)N(C)C(=O)N(c1c(Cl)c(OC)cc(OC)c1Cl)C2 | 100% | 100% | 100% | 100% | 100% | 100% | 100% | 100% | 100% | 100% | 100% | 100% | 100% | 100% | 100% | 100% | 100% | 100% | 100% | 100% | kinase still bound, per cent of control (GAK (human)): 100%; kinase still bound, per cent of control (TEK (human)): 100%; kinase still bound, per cent of control (CaMK1 (human)): 100%; kinase still bound, per cent of control (INSRR (human)): 100%; kinase still bound, per cent of control (MAP2K6 (human)): 100%; kinase still bound, per cent of control (CDKL3 (human)): 100%; kinase still bound, per cent of control (EPHB1 (human)): 100%; kinase still bound, per cent of control (SBK1 (human)): 100%; kinase still bound, per cent of control (MAP3K3 (human)): 3.8%; kinase still bound, per cent of control (BTK (human)): 100%; kinase still bound, per cent of control (CDK14 (human)): 100%; kinase still bound, per cent of control (NEK6 (human)): 100%; kinase still bound, per cent of control (PRKD1 (human)): 100%; kinase still bound, per cent of control (ERBB4 (human)): 100%; kinase still bound, per cent of control (GSK3B (human)): 100%; kinase still bound, per cent of control (CLK3 (human)): 100%; kinase still bound, per cent of control (DYRK2 (human)): 100%; kinase still bound, per cent of control (IGF1R (human)): 100%; kinase still bound, per cent of control (NTRK3 (human)): 100%
CS(=O)(=O)N1CCN(Cc2cc3nc(-c4cccc5[nH]ncc45)nc(N4CCOCC4)c3s2)CC1 | 100% | 100% | 100% | 100% | 100% | 100% | 100% | 100% | 100% | 100% | 100% | 100% | 100% | 100% | 100% | 100% | 100% | 100% | 100% | 100% | kinase still bound, per cent of control (GAK (human)): 100%; kinase still bound, per cent of control (TEK (human)): 100%; kinase still bound, per cent of control (CaMK1 (human)): 100%; kinase still bound, per cent of control (INSRR (human)): 100%; kinase still bound, per cent of control (MAP2K6 (human)): 100%; kinase still bound, per cent of control (CDKL3 (human)): 100%; kinase still bound, per cent of control (EPHB1 (human)): 100%; kinase still bound, per cent of control (SBK1 (human)): 100%; kinase still bound, per cent of control (MAP3K3 (human)): 100%; kinase still bound, per cent of control (BTK (human)): 100%; kinase still bound, per cent of control (CDK14 (human)): 100%; kinase still bound, per cent of control (NEK6 (human)): 100%; kinase still bound, per cent of control (PRKD1 (human)): 100%; kinase still bound, per cent of control (ERBB4 (human)): 100%; kinase still bound, per cent of control (GSK3B (human)): 100%; kinase still bound, per cent of control (DYRK2 (human)): 100%; kinase still bound, per cent of control (IGF1R (human)): 100%; kinase still bound, per cent of control (NTRK3 (human)): 100%
